We go through 2 molecules from patent US9545400B2, “Analgesic composition including opioid analgesic and P7C3” (CHONNAM NATIONAL UNIVERSITY HOSPITAL, priority 2014, dated 2017).

Each structure is given as a SMILES string.

The subject of data set [1] is Sprague-Dawley rats. Description: Formalin-induced pain test (flinching) after intrathecal administration. It counts as in vivo, rat. To be noted: for ED50 (dose which decreases the formalin response of the control by 50%), Phase 1 / ED50 (dose which decreases the formalin response of the control by 50%), Phase 2: drug alone, intrathecal 10 min before formalin injection, rat; for ED50 (dose which decreases the formalin response of the control by 50%), Phase 1: Phase 1 (0 to 9 min); for ED50 (dose which decreases the formalin response of the control by 50%), Phase 2: Phase 2 (10 to 60 min); for Ratio of ED50 in Phase 1 to ED50 in Phase 2: formalin experiment; for Ratio of ED50 in Phase 1 to ED50 in Phase 2 / Flinching reactions, dose-response (percentage of control) / Number of flinches over time at the highest dose: intrathecal; for Flinching reactions, dose-response (percentage of control): Phase 1 and Phase 2, FIGS. 2A and 2B; for Number of flinches over time at the highest dose: FIGS. 1A and 1B. As to the method: (§1) After permission for all the procedures in the experimental protocol was obtained by The Institutional Animal Care and Use Committee of Chonnam National University, experiments were performed. Adult male Sprague-Dawley rats (250 to 300 g) were used as the experimental subject, four rats per group were housed and kept in a well-controlled vivarium, maintained at 22° C. for 12 hours, with an alternating light/dark cycle and were given food and water ad libitum. Rats were under sevoflurance anesthesia in order to be implanted with an intrathecal catheter, and placed in a stereotaxic apparatus A polyethylene catheter lower end portion was intrathecally inserted so as to be positioned within the lumbar extension portion through an incision in the cisternal membrane. Then, the catheter upper end portion was secured at the skull. After the catheter implantation, rats were again housed in individual cages. After the intrathecal catheter implantation, rats showing movement disorder were excluded in the experiment, and killed by administering an overdose of sevoflurane. Rats showing normal responses were again housed in individual cages in the vivarium, and given a recovery time of 5 days.
A formalin experiment was used as a pain evoking experimental tool. 50 μL of a 5% formalin solution was injected subcutaneously into the subcutaneous tissue of a hind paw of the rat. […] The number of flinches was counted for 1 min periods at 1 and 5 min and at 5 min intervals from 10 to 60 min after the injection. […] Therefore, the phase from 0 to 9 minutes after the injection of formalin was defined as Phase 1, and the phase from 10 to 60 minutes was defined as Phase 2. After the behavior study, rats were administered an overdose of sevoflurane, and then killed.
The effect of the experimental drug for the formalin injection was tested for 5 days after the intrathecal catheter implantation. After acclimatization for 15 to 20 min in a restraint cylinder (10×10×30 cm), the rats were allocated to receive one of the experimental drugs, and tested only once. The same volume of the vehicle (saline, 0.1 N NaOH or DMSO) was administered to a control. The total number of rats used in the nociceptive behavioral study was 139 with 6 to 8 rats per group. The investigators were blind as to the administration amount and type of experimental drug used in each rat.
Saline, 10, 30, and 100 μg of P7C3 (Tocris Cookson Ltd., Bristol, UK), and 1, 3, 10, and 30 μg of morphine sulfate (Sigma-Aldrich, St. Louis, Mo., USA) were intrathecally administered 10 minutes before formalin injection, and analgesic effects (flinching number analysis) were investigated according to the aforementioned pain experiment. The drug was intrathecally administered by using a manually gear operated syringe pump. All the drugs were administered in an amount of 10 μl, and an additional 10 μl of standard saline was administered in order to wash out the catheter.
The dose (ED50), which decreases the formalin response of the control for P7C3 and morphine by 50%, was determined at Phase 1 and the Phase 2, respectively.
And then, ED50 of the mixed drug was obtained. The experiment was performed individually in Phase 1 and Phase 2.
Data obtained in Examples 1 and 2 were expressed as means±SEM. The time response data are presented as the number of flinches. The dose-response data are presented as a percentage of the control. Percentage of the control=(total number of flinches in drug administration group in Phase 1[2]/number of flinches of control in Phase 1[2])×100

In data set [2] the test system is Sprague-Dawley rats. Description: Evaluation of response of intrathecal administration of P7C3 (motor function and pinna/corneal reflexes). The following applies: highest dose (100 μg) intrathecal, 5 rats. It counts as in vivo, rat. Here is the method:
as §1, with “After the intrathecal catheter implantation, rats showing movement disorder were excluded in the experiment, and killed by administering an overdose of sevoflurane. Rats showing normal responses were again housed in individual cages in the vivarium, and given a recovery time of 5 days.” left out
In order to detect undesirable behaviors induced by P7C3, the highest dose (100 μg) was intrathecally administered to 5 rats of each individual group. Motor function was assessed by the placing-stepping reflex and the righting reflex. […] The latter was evaluated by placing the rat horizontally with the rat's back on the table. […] The central nervous system was evaluated through pinna and corneal reflexes. […]

Consider `CN1CC[C@]23c4c5ccc(O)c4O[C@H]2[C@@H](O)C=C[C@H]3[C@H]1C5` [Morphine, (5α,6α)-7,8-didehydro-4,5-epoxy-17-methylmorphinan-3,6-diol, reference compound], for which, in the data set with Sprague-Dawley rats [1], the “ED50 (dose which decreases the formalin response of the control by 50%), Phase 1” value turned out to be 8.8 µg; the “ED50 (dose which decreases the formalin response of the control by 50%), Phase 2” value is 3.9 µg; the “Ratio of ED50 in Phase 1 to ED50 in Phase 2” value was “two times larger”; the “Flinching reactions, dose-response (percentage of control)” value was “suppressed flinching reactions dose-dependently”. Further, the “Number of flinches over time at the highest dose” value in the data set with Sprague-Dawley rats [1] is on record as “exhibited potential analgesic effects throughout the entire observation period”.

Regarding `OC(CNc1ccccc1)Cn1c2ccc(Br)cc2c2cc(Br)ccc21` (centres unmarked) [P7C3, 1-(3,6-dibromo-9H-carbazol-9-yl)-3-(phenylamino)propan-2-ol], the “Normality of behavior: placing-stepping, righting, pinna and corneal reflexes” value in the data set on Sprague-Dawley rats [2] was “all normal (present)”. In the data set on Sprague-Dawley rats [1], the “ED50 (dose which decreases the formalin response of the control by 50%), Phase 1” value came out at 31.8 µg; the “ED50 (dose which decreases the formalin response of the control by 50%), Phase 2” value came out at 31 µg; the “Ratio of ED50 in Phase 1 to ED50 in Phase 2” value is listed as “similar”; the “Flinching reactions, dose-response (percentage of control)” value is recorded as “suppressed flinching reactions dose-dependently”. The “Number of flinches over time at the highest dose” value with Sprague-Dawley rats [1] was “exhibited potential analgesic effects throughout the entire observation period”.
